Test [1] deals with Phosphatidylinositol 4,5-bisphosphate 3-kinase catalytic subunit alpha isoform (Homo sapiens), P42336 [H1047L]. The note with it: Compound concentration 1000.0 nM.
Test [2] concerns the target Serine/threonine-protein kinase PRP4 homolog (Homo sapiens) (UniProt Q13523). To be noted: Compound concentration 1000.0 nM.
Test [3] has as its target 5'-AMP-activated protein kinase catalytic subunit alpha-1 (Homo sapiens, UniProt Q13131). In words: Biochemical PRKAA1 assay with 2 mM ATP (Bayer in house).
Test [4] has as its target Sigma intracellular receptor 2 (Homo sapiens, UniProt Q5BJF2). The note with it: Compound concentration 10.0 uM.
Test [5] has as its target Calcium/calmodulin-dependent protein kinase type 1B (Homo sapiens) (UniProt Q6P2M8). The note with it: Compound concentration 1000.0 nM.
Test [6] deals with Mitogen-activated protein kinase kinase kinase 11 (Homo sapiens) (UniProt Q16584). To be noted: Compound concentration 1000.0 nM.
Test [7] concerns the target Hormonally up-regulated neu tumor-associated kinase (Homo sapiens) (UniProt P57058). To be noted: Compound concentration 1000.0 nM.
For test [8], the system named is Proto-oncogene tyrosine-protein kinase receptor Ret (Homo sapiens), P07949 [V804L]. To be noted: Compound concentration 1000.0 nM.
Test [9] addresses T1, Ephrin type-B receptor 2 (Homo sapiens) (UniProt P29323).
T1 sequence (whole entry): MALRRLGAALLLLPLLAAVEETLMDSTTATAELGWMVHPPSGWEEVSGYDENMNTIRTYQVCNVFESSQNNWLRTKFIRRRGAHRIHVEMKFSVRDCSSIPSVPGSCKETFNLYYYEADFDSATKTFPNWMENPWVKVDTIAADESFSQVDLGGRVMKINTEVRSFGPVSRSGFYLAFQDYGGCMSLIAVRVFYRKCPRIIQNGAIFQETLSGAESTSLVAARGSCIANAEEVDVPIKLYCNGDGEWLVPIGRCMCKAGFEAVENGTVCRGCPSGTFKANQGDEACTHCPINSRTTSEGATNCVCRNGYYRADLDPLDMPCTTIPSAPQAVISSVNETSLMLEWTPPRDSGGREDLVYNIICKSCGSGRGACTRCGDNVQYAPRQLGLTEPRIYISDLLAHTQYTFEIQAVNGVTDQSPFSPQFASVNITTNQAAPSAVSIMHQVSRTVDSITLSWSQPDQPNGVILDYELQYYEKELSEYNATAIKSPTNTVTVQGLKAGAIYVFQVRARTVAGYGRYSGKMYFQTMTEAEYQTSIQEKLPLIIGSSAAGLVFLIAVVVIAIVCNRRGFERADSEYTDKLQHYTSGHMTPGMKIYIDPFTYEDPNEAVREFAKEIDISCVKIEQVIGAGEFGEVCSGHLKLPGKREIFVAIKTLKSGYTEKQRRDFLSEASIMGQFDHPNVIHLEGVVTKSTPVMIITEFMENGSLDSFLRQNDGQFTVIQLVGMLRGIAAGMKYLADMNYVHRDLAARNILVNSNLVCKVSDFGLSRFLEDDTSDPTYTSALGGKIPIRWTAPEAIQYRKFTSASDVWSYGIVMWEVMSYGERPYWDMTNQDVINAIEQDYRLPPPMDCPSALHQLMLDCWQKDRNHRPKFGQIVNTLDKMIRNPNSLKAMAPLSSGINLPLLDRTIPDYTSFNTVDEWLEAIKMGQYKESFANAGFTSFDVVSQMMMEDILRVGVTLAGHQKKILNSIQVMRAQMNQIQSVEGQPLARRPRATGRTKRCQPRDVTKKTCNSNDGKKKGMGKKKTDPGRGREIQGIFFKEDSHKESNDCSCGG
The note with it: Compound concentration 1000.0 nM.

Test [10] addresses Casein kinase II subunit alpha' (Homo sapiens) (UniProt P19784). To be noted: Compound concentration 1000.0 nM.
Test [11] concerns Receptor-type tyrosine-protein kinase FLT3 (Homo sapiens), P36888 [D835Y]. To be noted: Compound concentration 1000.0 nM.

Molecules are shown by their SMILES. Activity calls are given as the source filed them. The rule behind the calls is not given here.

Mitogen-activated protein kinase kinase kinase 11 (Homo sapiens), sequence (Q16584 whole entry, looked up): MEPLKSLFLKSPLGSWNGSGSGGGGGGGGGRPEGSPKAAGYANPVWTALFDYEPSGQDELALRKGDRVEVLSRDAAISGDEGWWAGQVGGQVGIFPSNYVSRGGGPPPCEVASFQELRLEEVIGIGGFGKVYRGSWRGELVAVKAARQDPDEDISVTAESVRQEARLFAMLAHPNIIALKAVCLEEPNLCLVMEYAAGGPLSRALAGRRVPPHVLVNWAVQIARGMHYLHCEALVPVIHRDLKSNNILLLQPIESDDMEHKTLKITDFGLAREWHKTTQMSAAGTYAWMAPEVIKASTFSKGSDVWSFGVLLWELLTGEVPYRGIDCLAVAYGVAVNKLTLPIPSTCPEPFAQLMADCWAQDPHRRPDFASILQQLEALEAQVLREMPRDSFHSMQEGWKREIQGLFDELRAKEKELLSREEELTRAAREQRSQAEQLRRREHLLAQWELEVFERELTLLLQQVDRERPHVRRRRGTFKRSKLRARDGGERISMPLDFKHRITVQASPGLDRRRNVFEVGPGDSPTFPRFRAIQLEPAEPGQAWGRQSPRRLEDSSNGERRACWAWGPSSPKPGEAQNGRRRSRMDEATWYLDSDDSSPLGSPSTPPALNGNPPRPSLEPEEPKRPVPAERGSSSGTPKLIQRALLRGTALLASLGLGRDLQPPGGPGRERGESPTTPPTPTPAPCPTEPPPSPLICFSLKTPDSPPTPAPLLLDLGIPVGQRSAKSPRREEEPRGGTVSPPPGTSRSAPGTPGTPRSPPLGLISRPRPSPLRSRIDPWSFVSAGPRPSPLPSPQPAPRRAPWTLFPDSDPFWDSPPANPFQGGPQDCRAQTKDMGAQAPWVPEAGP
Casein kinase II subunit alpha' (Homo sapiens), sequence (P19784 whole entry, looked up): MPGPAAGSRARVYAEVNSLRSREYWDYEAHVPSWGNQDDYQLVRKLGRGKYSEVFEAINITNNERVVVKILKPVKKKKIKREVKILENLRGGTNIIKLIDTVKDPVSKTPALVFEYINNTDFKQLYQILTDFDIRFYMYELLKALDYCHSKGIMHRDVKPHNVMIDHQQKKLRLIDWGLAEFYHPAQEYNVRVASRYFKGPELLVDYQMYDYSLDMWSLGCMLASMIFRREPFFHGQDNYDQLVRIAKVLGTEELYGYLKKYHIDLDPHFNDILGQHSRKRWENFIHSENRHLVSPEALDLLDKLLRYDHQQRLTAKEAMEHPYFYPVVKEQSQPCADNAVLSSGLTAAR
Calcium/calmodulin-dependent protein kinase type 1B (Homo sapiens), sequence (Q6P2M8 whole entry): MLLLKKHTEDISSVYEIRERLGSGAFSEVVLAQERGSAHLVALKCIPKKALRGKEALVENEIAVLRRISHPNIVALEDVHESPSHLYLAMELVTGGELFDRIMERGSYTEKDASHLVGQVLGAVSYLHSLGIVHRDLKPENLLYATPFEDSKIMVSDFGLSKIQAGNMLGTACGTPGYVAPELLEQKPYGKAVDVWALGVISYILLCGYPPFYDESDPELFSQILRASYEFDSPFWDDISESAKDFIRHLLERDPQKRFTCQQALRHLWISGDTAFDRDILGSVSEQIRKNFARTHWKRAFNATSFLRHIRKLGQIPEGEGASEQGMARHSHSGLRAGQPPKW
Sigma intracellular receptor 2, sequence (Q5BJF2 whole entry): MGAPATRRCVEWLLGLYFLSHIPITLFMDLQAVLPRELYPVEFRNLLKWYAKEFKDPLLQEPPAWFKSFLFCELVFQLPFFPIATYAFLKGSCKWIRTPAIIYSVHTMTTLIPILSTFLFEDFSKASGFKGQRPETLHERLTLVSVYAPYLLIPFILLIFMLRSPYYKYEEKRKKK
5'-AMP-activated protein kinase catalytic subunit alpha-1, sequence (Q13131 whole entry): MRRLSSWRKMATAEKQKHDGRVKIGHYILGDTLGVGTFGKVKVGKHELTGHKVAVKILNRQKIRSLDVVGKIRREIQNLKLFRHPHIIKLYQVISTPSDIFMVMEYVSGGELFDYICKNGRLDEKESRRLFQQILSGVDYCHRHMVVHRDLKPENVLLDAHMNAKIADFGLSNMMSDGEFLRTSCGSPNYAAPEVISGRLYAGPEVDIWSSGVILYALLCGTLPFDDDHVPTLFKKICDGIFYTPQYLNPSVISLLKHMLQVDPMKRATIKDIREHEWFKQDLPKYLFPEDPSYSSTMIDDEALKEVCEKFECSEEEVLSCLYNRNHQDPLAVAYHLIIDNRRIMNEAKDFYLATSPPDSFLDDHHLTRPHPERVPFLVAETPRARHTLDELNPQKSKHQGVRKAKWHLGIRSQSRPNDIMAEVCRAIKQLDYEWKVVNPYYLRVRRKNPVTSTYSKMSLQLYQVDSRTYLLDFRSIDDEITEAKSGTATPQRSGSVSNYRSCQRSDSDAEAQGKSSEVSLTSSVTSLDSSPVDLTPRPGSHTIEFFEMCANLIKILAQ
Hormonally up-regulated neu tumor-associated kinase (Homo sapiens), sequence (P57058 whole entry): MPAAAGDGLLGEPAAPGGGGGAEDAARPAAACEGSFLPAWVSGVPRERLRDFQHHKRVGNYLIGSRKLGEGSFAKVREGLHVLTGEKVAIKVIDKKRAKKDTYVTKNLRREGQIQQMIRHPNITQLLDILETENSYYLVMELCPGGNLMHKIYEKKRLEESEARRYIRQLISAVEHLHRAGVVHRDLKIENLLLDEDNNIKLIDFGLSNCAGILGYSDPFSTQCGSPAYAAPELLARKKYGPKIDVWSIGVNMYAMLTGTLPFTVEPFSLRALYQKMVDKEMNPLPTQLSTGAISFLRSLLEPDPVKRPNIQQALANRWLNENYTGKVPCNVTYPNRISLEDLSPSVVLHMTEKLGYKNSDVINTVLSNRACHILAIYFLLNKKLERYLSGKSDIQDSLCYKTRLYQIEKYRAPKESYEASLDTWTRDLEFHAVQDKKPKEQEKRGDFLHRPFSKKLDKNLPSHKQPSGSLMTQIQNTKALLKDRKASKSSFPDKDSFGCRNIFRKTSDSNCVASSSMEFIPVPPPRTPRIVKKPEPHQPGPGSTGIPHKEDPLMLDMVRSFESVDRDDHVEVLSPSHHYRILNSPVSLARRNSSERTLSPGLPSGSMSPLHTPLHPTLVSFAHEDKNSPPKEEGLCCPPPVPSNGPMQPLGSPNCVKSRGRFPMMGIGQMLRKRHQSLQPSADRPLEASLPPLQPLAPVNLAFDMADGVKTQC
Phosphatidylinositol 4,5-bisphosphate 3-kinase catalytic subunit alpha isoform (Homo sapiens), P42336 [H1047L], sequence (P42336 whole entry H1047L, canonical isoform): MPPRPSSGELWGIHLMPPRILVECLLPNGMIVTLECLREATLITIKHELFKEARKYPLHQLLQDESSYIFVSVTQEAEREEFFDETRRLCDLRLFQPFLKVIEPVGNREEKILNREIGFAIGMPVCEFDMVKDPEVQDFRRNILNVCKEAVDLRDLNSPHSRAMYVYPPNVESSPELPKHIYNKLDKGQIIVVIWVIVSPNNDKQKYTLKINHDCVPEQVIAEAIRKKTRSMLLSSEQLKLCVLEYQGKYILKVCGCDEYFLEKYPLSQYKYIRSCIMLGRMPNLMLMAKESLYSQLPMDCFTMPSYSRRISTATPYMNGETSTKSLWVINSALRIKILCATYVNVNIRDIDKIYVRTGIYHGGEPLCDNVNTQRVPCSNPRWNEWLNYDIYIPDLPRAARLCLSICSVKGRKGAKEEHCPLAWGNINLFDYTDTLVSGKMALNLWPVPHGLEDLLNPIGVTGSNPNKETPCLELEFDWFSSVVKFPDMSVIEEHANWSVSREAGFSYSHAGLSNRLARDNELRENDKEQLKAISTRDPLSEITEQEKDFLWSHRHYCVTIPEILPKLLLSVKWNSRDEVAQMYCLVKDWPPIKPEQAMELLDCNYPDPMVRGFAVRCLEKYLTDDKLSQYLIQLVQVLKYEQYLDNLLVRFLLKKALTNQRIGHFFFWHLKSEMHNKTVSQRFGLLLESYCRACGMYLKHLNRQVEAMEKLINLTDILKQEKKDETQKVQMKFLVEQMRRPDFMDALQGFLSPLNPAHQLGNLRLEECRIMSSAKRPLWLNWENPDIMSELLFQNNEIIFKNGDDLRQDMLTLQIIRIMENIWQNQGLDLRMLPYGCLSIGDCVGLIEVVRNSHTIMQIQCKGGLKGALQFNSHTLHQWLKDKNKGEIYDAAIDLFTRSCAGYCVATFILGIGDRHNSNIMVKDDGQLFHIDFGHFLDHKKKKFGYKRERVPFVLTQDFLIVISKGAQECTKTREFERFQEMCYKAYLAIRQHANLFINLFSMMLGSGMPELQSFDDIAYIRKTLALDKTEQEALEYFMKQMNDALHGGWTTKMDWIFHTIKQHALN

On to `CC1=C(C#N)C(c2ccc3c(c2)c(NC(=O)c2ccccc2C)nn3C)C(C#N)=C(C)N1` [BAY-974], for which the residual activity in [1] was 100%; in test [2] it was 77%; in test [5], 85%; in [6], 96%; in test [7] it was 78%; in test [8] it was 100%. The residual activity in [9] is 86%; in test [10] it was 100%; in test [11], 82%. Besides, the IC50 in test [3] was > 20 µM (not active). Besides, in test [4], the inhibition is 51.2%.
In the case of `CCc1ccccc1C(=O)Nc1n[nH]c2c(C)c(F)c(C3C(C#N)=C(C)N(C)C(C)=C3C#N)cc12` [BAY-3827], the residual activity in test [1] is 100%; in [2] it was 72%; in [5], 100%; in test [6], 88%; in [7], 100%; in test [8], 25%. For the same compound, the results for the residual activity in test [9], in [10] and in test [11] were 76%, 100% and 2.5%, respectively. The IC50 in test [3] is 0.015 µM (active). In test [4], the inhibition is 78.3%.

One may read the IC50 as the point on the concentration scale where inhibition reaches its midpoint. In general, inhibition refers to the percentage by which the read-out fell short of the control.

Values taken from ChEMBL document CHEMBL4507319 (2021).
